Experimental findings from ChEMBL document CHEMBL1201862, “PubChem BioAssay data set” (2004) are described below.

Among the test systems are A549; CCRF-CEM; COLO 205; HCT-15; HOP-92; IGROV-1; KM12; M14; OVCAR-5; OVCAR-8; RXF 393; SF-268; SK-MEL-2; SN12C; UACC-257; UACC-62; NCI-H23.
Assay in all cases: growth of human tumour cells (NCI), 48 h

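48-hour exposure; five concentrations; linearly interpolated endpoints. GI50 marks 50% less growth.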 The source made the active and inactive calls. Cut-off read from the data, not from the text of the source: active = GI50 up to about 1.1 µM and inactive = higher. Where only a bound is given, the exact number is not on record here.

Take `Nc1nc(O)c2c(ncn2CC(O)CO)n1` (stereo not given): the GI50 in the assay on A549 is > 100 µM (inactive); in the assay with CCRF-CEM, > 100 µM (inactive); in the assay with COLO 205, > 100 µM (inactive); in the assay with HCT-15, more than 100 µM; with HOP-92, > 100 µM (inactive); in the assay with IGROV-1 it was > 100 µM (inactive). For the same compound, the GI50 with KM12, with M14, in the assay on OVCAR-5, in the assay on OVCAR-8, in the assay with RXF 393 and with SF-268 was > 100 µM (inactive) throughout. Further, the GI50 in the assay on SK-MEL-2, in the assay on SN12C, in the assay on UACC-257 and in the assay with UACC-62 was > 100 µM (inactive) in each case.

On to `CCOC(=O)C(C)(C)Oc1ccc2c(-c3ccc(Cl)cc3)c(-c3ccc(Cl)cc3)c(=O)oc2c1`, for which the GI50 is > 100 µM (inactive) with A549; > 100 µM (inactive) in the assay on CCRF-CEM; > 100 µM (inactive) with COLO 205; more than 100 µM in the assay with HCT-15; > 100 µM (inactive) in the assay with IGROV-1; > 100 µM (inactive) in the assay with M14. The GI50 in the assay with NCI-H23 was > 100 µM (inactive); with OVCAR-8, > 100 µM (inactive); in the assay on RXF 393 it was 93.8 µM (inactive); in the assay with SF-268, > 100 µM (inactive); with SK-MEL-2 it was > 100 µM (inactive); in the assay with SN12C, > 100 µM (inactive). Also, the GI50 in the assay with UACC-257 and with UACC-62 was > 100 µM (inactive) each time.

Regarding `Cc1ccc(NC(=O)/C(Cl)=C(/Cl)C(=O)O)cc1`, the GI50 was 69.8 µM (inactive) in the assay on A549; 2.12 µM (inactive) with CCRF-CEM; 6.93 µM (inactive) in the assay with COLO 205; 15.6 µM with HCT-15; 18.2 µM (inactive) in the assay on HOP-92; 29.6 µM (inactive) with IGROV-1. Further, the GI50 was 18.7 µM (inactive) in the assay with KM12; 15.2 µM (inactive) with M14; 17.5 µM (inactive) in the assay with NCI-H23; 21 µM (inactive) in the assay on OVCAR-5; 31 µM (inactive) in the assay with RXF 393; 23 µM (inactive) in the assay on SF-268. Also, the GI50 in the assay with SK-MEL-2 is 14.6 µM (inactive); in the assay on SN12C it was 18.5 µM (inactive); in the assay with UACC-257 it was 22 µM (inactive); in the assay with UACC-62, 15.9 µM (inactive).

For the compound `CC1(OCc2ccccc2)C(=O)N2C1N(C(=O)OCc1ccccc1)CC2(C)C` (stereo not given), the GI50 in the assay with A549 is 38.8 µM (inactive); in the assay on CCRF-CEM, 35.1 µM (inactive); with COLO 205, 94.6 µM (inactive); in the assay on HCT-15 it was 68.1 µM; in the assay on IGROV-1, 57.3 µM (inactive); with M14 it was 66.8 µM (inactive). Further, the GI50 in the assay on NCI-H23 was 35.1 µM (inactive); in the assay with OVCAR-8 it was 34.8 µM (inactive); in the assay with RXF 393 it was 67.5 µM (inactive); in the assay on SF-268 it was > 100 µM (inactive); with SK-MEL-2, 69.3 µM (inactive); in the assay with SN12C it was > 100 µM (inactive). Also, the results for the GI50 in the assay on UACC-257 and with UACC-62 were 36.6 µM (inactive) and 38.5 µM (inactive), respectively.

With `CCN(CC)C(=O)N1CCN(C=S)CC1`, the GI50 in the assay on A549 was > 100 µM (inactive); with CCRF-CEM it was > 100 µM (inactive); with COLO 205 it was > 100 µM (inactive); with HCT-15, more than 100 µM; with IGROV-1 it was > 100 µM (inactive); in the assay with KM12, > 100 µM (inactive). Moreover, the GI50 in the assay with M14, in the assay on NCI-H23, in the assay on OVCAR-5, in the assay on OVCAR-8, in the assay on RXF 393 and with SF-268 was > 100 µM (inactive) each time. The GI50 with SK-MEL-2, with SN12C, in the assay on UACC-257 and with UACC-62 was > 100 µM (inactive) each time.

For `Cn1nc2ccc3nccc(NCCNCCO)c3c2n1`, the GI50 in the assay with A549 is 40.2 µM (inactive); in the assay with CCRF-CEM, > 100 µM (inactive); with COLO 205, 17.5 µM (inactive); in the assay on HCT-15 it was 44.3 µM; in the assay on HOP-92 it was 36.3 µM (inactive); in the assay on IGROV-1, 68.4 µM (inactive). The GI50 was 35 µM (inactive) with KM12; 32.5 µM (inactive) in the assay with M14; 39.4 µM (inactive) with NCI-H23; 25 µM (inactive) in the assay with OVCAR-5; 36.4 µM (inactive) in the assay on OVCAR-8; 23.7 µM (inactive) in the assay with RXF 393. Also, the GI50 in the assay with SF-268 was 27.4 µM (inactive); in the assay with SN12C it was 32.8 µM (inactive); with UACC-257, 27.3 µM (inactive); in the assay on UACC-62 it was 33.3 µM (inactive).

For the compound `N#Cc1cc([N+](=O)[O-])ccc1NC(=O)C(=O)Nn1c(S)nc2ccccc2c1=O`, the GI50 with A549 is > 100 µM (inactive); with CCRF-CEM, > 100 µM (inactive); with COLO 205, > 100 µM (inactive); in the assay on HCT-15, more than 100 µM; with HOP-92, > 100 µM (inactive); in the assay with IGROV-1, > 100 µM (inactive). Moreover, the GI50 in the assay on KM12, in the assay on M14, with NCI-H23, in the assay on OVCAR-5, with OVCAR-8 and in the assay with RXF 393 was > 100 µM (inactive) each time. The GI50 in the assay with SF-268, in the assay on SN12C and in the assay on UACC-257 was > 100 µM (inactive) in each case.

As for `CCOC(=O)C(C)(C)Oc1ccc2c(-c3ccccc3)cc(=O)oc2c1`, the GI50 in the assay on A549 is 38.9 µM (inactive); in the assay on CCRF-CEM it was 21.7 µM (inactive); in the assay on COLO 205 it was 21.6 µM (inactive); in the assay on HCT-15 it was 31.8 µM; in the assay with IGROV-1, 25.1 µM (inactive); in the assay on M14 it was 36.6 µM (inactive). Also, the GI50 is 29 µM (inactive) in the assay with NCI-H23; 37.1 µM (inactive) in the assay with OVCAR-8; 45.8 µM (inactive) with SF-268; 22.6 µM (inactive) with SK-MEL-2; 37 µM (inactive) with SN12C; 28.7 µM (inactive) with UACC-257. The GI50 in the assay with UACC-62 is 18.3 µM (inactive).

With `CC(=O)N1CCC2(C=Nc3ccccc32)CC1`, the GI50 in the assay on A549 is > 100 µM (inactive); with CCRF-CEM, > 100 µM (inactive); in the assay on COLO 205, > 100 µM (inactive); in the assay on HCT-15, more than 100 µM; in the assay on HOP-92, > 100 µM (inactive); in the assay on IGROV-1 it was > 100 µM (inactive). Further, the GI50 in the assay on KM12, with M14, in the assay on NCI-H23, in the assay on OVCAR-5, with OVCAR-8 and in the assay with SK-MEL-2 was > 100 µM (inactive) each time. The GI50 in the assay with UACC-257 and in the assay with UACC-62 was > 100 µM (inactive) throughout.

As to `O=[N+]([O-])c1ccc(-c2ccc(C3=Nn4c(CNc5ccccc5Cl)nnc4SC3)o2)cc1`, the GI50 with A549 was > 100 µM (inactive); in the assay on COLO 205 it was > 100 µM (inactive); in the assay on HCT-15 it was 12.9 µM; with HOP-92, > 100 µM (inactive); with IGROV-1, > 100 µM (inactive); in the assay on KM12 it was > 100 µM (inactive). Moreover, the GI50 in the assay on M14 is > 100 µM (inactive); with NCI-H23, 87.9 µM (inactive); with OVCAR-5 it was > 100 µM (inactive); in the assay on OVCAR-8 it was > 100 µM (inactive); with SF-268, > 100 µM (inactive); with SK-MEL-2, > 100 µM (inactive). Further, the GI50 in the assay on SN12C, with UACC-257 and in the assay with UACC-62 was > 100 µM (inactive) each time.

In the case of `O=C(Cc1ccccc1)NN1C(=O)C(Cl)C1c1cccc(O)c1` (stereo not given), the GI50 was 25.1 µM (inactive) in the assay on A549; 3.06 µM (inactive) in the assay with CCRF-CEM; 18.4 µM (inactive) with COLO 205; 18.7 µM in the assay on HCT-15; 17.2 µM (inactive) in the assay with IGROV-1; 15.3 µM (inactive) in the assay with M14. The GI50 is 17.5 µM (inactive) in the assay on NCI-H23; 14.4 µM (inactive) in the assay on OVCAR-5; 14 µM (inactive) in the assay with OVCAR-8; 18 µM (inactive) in the assay with RXF 393; 21.1 µM (inactive) in the assay with SF-268; 27 µM (inactive) in the assay with SK-MEL-2. Also, the GI50 in the assay with SN12C is 18.5 µM (inactive); in the assay with UACC-257 it was 18.2 µM (inactive); in the assay on UACC-62 it was > 10 µM (inactive).

As for `[O-][S+](c1ccc(O)cc1)c1ccc(O)cc1`, the GI50 in the assay on A549 was > 100 µM (inactive); with CCRF-CEM, > 100 µM (inactive); with COLO 205, > 100 µM (inactive); with HCT-15 it was more than 100 µM; in the assay on HOP-92, > 100 µM (inactive); with IGROV-1, > 100 µM (inactive). Moreover, the GI50 with KM12, in the assay with M14, with NCI-H23, in the assay on OVCAR-5, in the assay on RXF 393 and with SF-268 was > 100 µM (inactive) each time. For the same compound, the GI50 in the assay with SK-MEL-2, with UACC-257 and with UACC-62 was > 100 µM (inactive) throughout.

With `CCCCCCCCCC(=O)N[C@H]1CCc2cc(OC)c(OC)c(OC)c2-c2ccc(SC)c(=O)cc21`, the GI50 in the assay on A549 was 0.0376 µM (active); in the assay with CCRF-CEM it was 0.0426 µM (active); in the assay with COLO 205 it was 0.00345 µM (active); in the assay with HCT-15, 0.0313 µM; in the assay with HOP-92 it was 0.0168 µM (active); with IGROV-1 it was 0.0387 µM (active). Also, the GI50 in the assay with KM12 was 0.0209 µM (active); with M14, 0.0226 µM (active); in the assay with NCI-H23, 0.0216 µM (active); with OVCAR-5, 29.7 µM (inactive); with OVCAR-8, 0.0338 µM (active); in the assay on RXF 393, 0.0224 µM (active). The GI50 was 0.0223 µM (active) in the assay on SF-268, 0.0365 µM (active) with SN12C, 0.0417 µM (active) in the assay on UACC-257 and 0.0353 µM (active) in the assay on UACC-62.
